Assay results as given in paper PMC7367283, “A PIP2 substitute mediates voltage sensor-pore coupling in KCNQ activation” (Communications Biology, 2020).
Several values for one entry are separate records, joined by “and”; a condition that tells them apart may be missing. Equal entries are not always repeated.

Tests used:
Test in all cases: Two-electrode voltage clamp of mutant KCNQ1 in Xenopus oocytes
Format in all cases: cell-based
[1] = molecular target: KCNQ1 Q359A (Homo sapiens, UniProt P51787, Q359A); conditions: 10 µM CP1, individual oocytes
From the text: (§1) In a previous study, mutation of residues in the predicted PIP2-binding site reduced KCNQ1 currents. CP1 modifies voltage-dependent activation of KCNQ1 channels by shifting the voltage dependence of channel opening, measured as the voltage dependence of the conductance (G–V) relationship, to more negative voltages (Fig. 1c) among other characteristics (see below). We made mutations to the residues around the CP1-interacting pocket as indicated by molecular docking (Fig. 1b), and examined the effects of the mutations on the CP1-induced shift of the G–V relationship. The mutations of the KCNQ1 residues that interact with CP1 in docking simulations reduced the shift of the G–V relationship (Fig. 1c, d), supporting the interaction of these residues with CP1.
(§2) Complementary DNA (cDNA) encoding human KCNQ1 (UniProtKB/Swiss‐Prot under accession no. P51787), KCNQ2 (O43526), KCNQ3 (O43525), KCNE1 (P15382), Kir1.1 (P48048), hERG (Q12809), KV4.2 (Q63881), NaV1.5 (Q14524), NaV β1 (Q07699), CaV1.2 (Q13936), CaV β1a (Q02641), CaV α2/δ1 (P54289), and HCN4 (Q9Y3Q4) were subcloned into oocyte expression vectors, respectively. Site-directed mutations of the KCNQ1 channel were all produced by overlap extension polymerase chain reaction (PCR) with high-fidelity Pfu polymerase (Stratagene, CA). The presence of the desired mutation was verified by sequencing the PCR-amplified regions. All the primer sequences used in this study are available in Supplementary Table 1. The complementary RNA (cRNA) of all these channels and mutations was transcribed in vitro with the T3, T7, or SP6 polymerase mMessage mMachine kit (Invitrogen, Thermo Fisher Scientific, MO).
(§3) The use of Xenopus laevis to obtain oocytes was approved by the Washington University Animal Studies Committee (protocol #20190030). Oocytes were manually dispersed and digested with collagenase (0.5 mg/ml, Sigma-Aldrich, Saint Louis, MO) to remove the follicle cell layer. Stage V or VI oocytes were selected and injected with cRNAs (9.2 ng) of channel or mutations. Especially, to characterize IKs, a mix of cRNAs at a molar ratio 4:1 (KCNQ1:KCNE1) was injected. For KCNQ2/KCNQ3, the molar ratio was 1:1 (KCNQ2:KCNQ3). For sodium channels, a 3:1 molar ratio (β1:NaV1.5) and for calcium channels a weight ratio 1:1:1 (β1:α2/δ1:CaV1.2) was injected, respectively. Injected oocytes were incubated in ND96 solution containing (in mM) 96 NaCl, 2 KCl, 1.8 CaCl2, 1 MgCl2, and 5 HEPES, pH 7.6, supplemented with 2.5 mM Na pyruvate and 1% penicillin–streptomycin, at 18 °C for 3–7 days before recording.
(§4) The whole-oocyte ionic currents were recorded with a GeneClamp 500B amplifier (Axon Instruments, CA) or iTEV90 amplifier (HEKA, Germany) and then sampled at 1 kHz and low-pass-filtered at 2 kHz. The Patchmaster software (HEKA, Germany) was used to acquire data. The Kir1.1 current was recorded with a high K^+ bath solution containing (in mM) 96 KCl, 4 NaCl, 1 CaCl2, 2 MgCl2, and 10 HEPES, pH 7.3–7.4. The HCN4 current was recorded in ND66 solution containing (in mM) 66 NaCl, 32 KCl, 1.8 CaCl2, 1 MgCl2, and 5 HEPES, pH 7.6. All the other potassium channels were recorded in ND96 solution. The currents of CaV1.2 channel were recorded in 40 mM Ba^2+ bath solution containing (in mM) 40 Ba(OH)2, 50 TEA-OH, 2 KOH, and 5 HEPES, adjusted to pH 7.4 with methanesulfonic acid. CP1 (DISODIUM 5-BROMO-2-[9-CHLORO-3-(SULFONATOOXY) NAPHTHO [1,2-B] THIEN-2-YL]-1H-INDOL-3-YL SULFATE, Sigma-Aldrich, MO) and Chromanol 293B (Sigma-Aldrich, MO) were dissolved in bath solutions. All the chemicals were purchased from Sigma-Aldrich. To measure the I–V relations of the Kir1.1 channel, the test voltage was set from −100 to +60 mV for 1 s with 20-mV increments. The test pulses were stepped from a holding potential of 0 mV and then stepped back to 0 mV. The HCN4 currents were recorded by a test pulse between −30 and −140 mV in 10-mV step from a holding potential of −30 mV. […]

[2] = molecular target: KCNQ1 R259A (Homo sapiens, UniProt P51787, R259A); conditions: 10 µM CP1, individual oocytes
From the text: as §1, §2, §3, §4

[3] = molecular target: KCNQ1 R249A/S253A/K354A/K358A (Homo sapiens, UniProt P51787, K354A/K358A/R249A/S253A)
From the text: as §1, §2, §3, §4

[4] = molecular target: KCNQ1 K358A (Homo sapiens, UniProt P51787, K358A)
From the text: as §1, §2, §3, §4

[5] = molecular target: KCNQ1 R243A (Homo sapiens, UniProt P51787, R243A); conditions: 10 µM CP1, individual oocytes
From the text: as §1, §2, §3, §4

[6] = molecular target: KCNQ1 R249A/K354A (Homo sapiens, UniProt P51787, K354A/R249A); conditions: 10 µM CP1, individual oocytes
From the text: as §1, §2, §3, §4

G/Gmax ([3]; 10 µM CP1, 0 mV): 0.6125
G/Gmax ([3]; 10 µM CP1, 10 mV): 0.7412
G/Gmax ([3]; 10 µM CP1, 20 mV): 0.8671
G/Gmax ([3]; 10 µM CP1, 30 mV): 0.9470
G/Gmax ([3]; 10 µM CP1, 40 mV): 1.0000
G/Gmax ([3]; 10 µM CP1, -10 mV): 0.4658
G/Gmax ([3]; 10 µM CP1, -20 mV): 0.3584
G/Gmax ([3]; 10 µM CP1, -30 mV): 0.2410
G/Gmax ([3]; 10 µM CP1, -40 mV): 0.1854
G/Gmax ([3]; 10 µM CP1, -50 mV): 0.1254
G/Gmax ([3]; 10 µM CP1, -60 mV): 0.1039
G/Gmax ([3]; 10 µM CP1, -70 mV): 0.0777
G/Gmax ([3]; 10 µM CP1, -80 mV): 0.0665
G/Gmax ([3]; 10 µM CP1, -90 mV): 0.0440
G/Gmax ([3]; 10 µM CP1, -100 mV): 0.0354
G/Gmax ([3]; 10 µM CP1, -110 mV): 0.0175
G/Gmax ([3]; 10 µM CP1, -120 mV): 0.0015
G/Gmax ([4]; 10 µM CP1, 0 mV): 0.9554
G/Gmax ([4]; 10 µM CP1, 10 mV): 0.9870
G/Gmax ([4]; 10 µM CP1, 20 mV): 1.0000
G/Gmax ([4]; 10 µM CP1, -10 mV): 0.8985
G/Gmax ([4]; 10 µM CP1, -20 mV): 0.8248
G/Gmax ([4]; 10 µM CP1, -30 mV): 0.7348
G/Gmax ([4]; 10 µM CP1, -40 mV): 0.6300
G/Gmax ([4]; 10 µM CP1, -50 mV): 0.5260
G/Gmax ([4]; 10 µM CP1, -60 mV): 0.4207
G/Gmax ([4]; 10 µM CP1, -70 mV): 0.3286
G/Gmax ([4]; 10 µM CP1, -80 mV): 0.2595
G/Gmax ([4]; 10 µM CP1, -90 mV): 0.1953
G/Gmax ([4]; 10 µM CP1, -100 mV): 0.1209
G/Gmax ([4]; 10 µM CP1, -110 mV): 0.0580
G/Gmax ([4]; 10 µM CP1, -120 mV): 0.0105
SMILES: O=S(=O)([O-])Oc1c(-c2sc3c(ccc4cccc(Cl)c43)c2OS(=O)(=O)[O-])[nH]c2ccc(Br)cc12.[Na+].[Na+] [CP1, DISODIUM 5-BROMO-2-[9-CHLORO-3-(SULFONATOOXY) NAPHTHO [1,2-B] THIEN-2-YL]-1H-INDOL-3-YL SULFATE]
∆V1/2 [1]: 92.2901 mV and 78.8586 mV and 79.8593 mV and 57.9843 mV
∆V1/2 [2]: 40.9982 mV and 50.0211 mV and 57.3239 mV and 73.9485 mV
∆V1/2 ([3]; 10 µM CP1, individual oocytes): 21.6716 mV and 20.4143 mV and 21.6154 mV and 29.7699 mV
∆V1/2 ([4]; 10 µM CP1, individual oocytes): 15.3181 mV and 41.4752 mV and 28.1195 mV and 31.8534 mV and 36.2122 mV and 21.5083 mV and 28.8875 mV
∆V1/2 [5]: 24.1172 mV and 49.8519 mV and 42.6967 mV and 36.2884 mV and 45.9483 mV and 47.7413 mV
∆V1/2 [6]: 32.102 mV and 39.1842 mV and 11.494 mV and 26.1488 mV and 17.9511 mV
